Measured values: paper PMC3155816 (Journal of medicinal chemistry, 2011)
Converted amounts (≈) assume the structure as drawn. “And” between values parts separate entries of the source, which are not always exact repeats. Equal entries are not always repeated.

What was measured:
[1] = test system: Vaccinia virus (WR strain); experiment: microbe, parasite or virus in culture; type: cell-based; details: Orthopoxvirus vaccinia, BSC-1, read-out: Plaque Reduction EC50
[2] = Solubility in PBS by chemiluminescence of total nitrogen; type: physicochemical
[3] = Cytotoxicity by LDH release; type: cell-based; details: African green monkey, BSC-1 cells
[4] = target: vaccinia E9 DNA polymerase with A20 and D4 (processivity complex) (Vaccinia virus, UniProt P04303); experiment: biochemical
[5] = target: vaccinia virus D4 (Vaccinia virus, UniProt P04303); type: binding

| SMILES | EC50 [1] [µM] | solubility [2] | further results |
| --- | --- | --- | --- |
| COc1ccc(Nc2nc(Nc3ccc(OC)cc3OC)nc(N3CCOCC3)n2)c(OC)c1 [Compound 12] | ≥ 200 |  |  |
| Oc1ccc(NCc2ccccc2OCc2ccccc2)cc1 [Compound 10, 4-({[2-(benzyloxy)phenyl]methyl}amino)phenol] | 9.8 | 3.5 µM (≈ 1.07 µg/mL) |  |
| Cc1ccc2oc(-c3ccc(Cl)cc3)c(O)c(=O)c2c1 [Compound 5] | ≥ 200 |  |  |
| Cn1c(=O)n(C)c2cc(NS(=O)(=O)c3ccc(C(C)(C)C)cc3)c(NCc3ccccc3)cc21 [Compound 14, N-[6-(benzylamino)-1,3-dimethyl-2-oxo-2,3-dihydro-1H-1,3-benzodiazol-5-yl]-4-tert-butylbenzene-1-sulfonamide] |  | 1.9 µM (≈ 0.909 µg/mL) |  |
| COc1cc(-c2nc(-c3ccccc3)c(-c3ccc(Br)cc3)[nH]2)cc(OC)c1O [Compound 27, 4-[5-(4-bromophenyl)-4-phenyl-1H-imidazol-2-yl]-2,6-dimethoxyphenol] | 22.4 | 3.2 µM (≈ 1.44 µg/mL) |  |
| COc1ccc(C)cc1N(CC(=O)N1CCC(C)CC1)S(=O)(=O)c1ccc(C)cc1 [Compound 26] | ≥ 200 |  |  |
| Cc1cc2n(n1)C(c1cc(C(C)(C)C)c(O)cc1O)Nc1ccccc1-2 (stereo not shown) [Compound 15, 4-tert-butyl-6-{2-methyl-5H,6H-pyrazolo[1,5-c]quinazolin-5-yl}benzene-1,3-diol] | 23.3 | 54.7 µM (≈ 19.1 µg/mL) |  |
| O=C1c2ccccc2-c2onc3c(NCCO)cc(NC4CCCCC4)c1c23 [Compound 9, 10-(cyclohexylamino)-12-[(2-hydroxyethyl)amino]-15-oxa-14-azatetracyclohexadeca-1(16),2,4,6,9,11,13-heptaen-8-one] | 8.1 | 1.4 µg/mL and 3.6 µM | CC50 at 20 h [3]: 127 µM; IC50 [4]: 34.1 µM; Tm [5]: 51.4 ± 9.1 °C; ΔTm [5]: 13.1 °C |
